Key:
[1] = test system: 231MFP breast cancer cells; assay: 231MFP serum-free cell survival (Hoechst staining); format: cell-based; details: 48 h
[2] = test system: 231MFP breast cancer cells; assay: Metabolomic profiling (SRM-based LC-MS/MS) in 231MFP cells; format: cell-based; details: 5 h
Protocol: For polar metabolites, cell pellets were extracted in a mixture of acetonitrile/methanol/water (40:40:20), with inclusion of D3-15N-serine (10 nM) as an internal standard. Insoluble debris was separated via centrifugation at 13,000 rpm for 10 minutes. For nonpolar metabolites, metabolomes were extracted in 2:1 chloroform:methanol (3 ml) and PBS (1 ml) with inclusion of dodecylglycerol (10 nmol) and pentadecanoic acid (10 nmol) as internal standards. Organic and aqueous layers were separated by centrifugation at 1000×g for 5 minutes; the organic layer was collected, dried under a stream of nitrogen, and then dissolved in chloroform (120 μl). An aliquot of the nonpolar or polar extracts were then injected into an Agilent 6460 or 6430 QQQ-LC/MS/MS system. Separation of polar metabolites was achieved using normal-phase chromatography with a Luna NH2 column (5 mm) using a mobile phase (Buffer A: acetonitrile; Buffer B, 95:5 water/acetonitrile; with a modifier of 0.1% formic acid or 0.2% ammonium hydroxide) along with ammonium acetate (50 mM) for positive and negative ionization mode, respectively. The following gradient was used for each run: 0% B for 5 minutes (flow rate: 0.2 mL/min), 0% B to 100% B (linear) over 15 min (flow rate: 0.7 mL/min), then followed by an isocratic gradient of 100% B for 5 minutes (flow rate: 0.7 mL/min) and then 0% B for 5 minutes (flow rate of 0.7 mL/min). For nonpolar metabolites, metabolomes were separated using reverse-phase chromatography with a Luna C5 column (50 mm×4.6 mm with 5 μm diameter particles). Mobile phase A consisted of 95:5 ratio of water/methanol and mobile phase B consisted of 2-propanol, methanol, and water in a 60:35:5 ratio. Solvent modifiers of 0.1% formic acid, 5 mM ammonium formate, and 0.1% ammonium hydroxide were used to assist ion formation as well as to improve the LC resolution in both positive and negative ionization modes, respectively. The flow rate for each run started at 0.1 ml/min for 5 minutes to alleviate backpressure associated with injecting chloroform. The gradient started at 0% B and increased linearly to 100% B over the course of 45 min with a flow rate of 0.4 ml/min, followed by an isocratic gradient of 100% B for 17 minutes at 0.5 ml/min before equilibrating for 8 minutes at 0% B with a flow rate of 0.5 ml/min.
MS analysis was performed with an electrospray ionization (ESI) source on an Agilent 6430 or 6460 QQQ LC-MS/MS system. The capillary voltage was set to 3.0 kV, and the fragmentor voltage was set to 100 V. The drying gas temperature was 350° C., the drying gas flow rate was 10 L/min, and the nebulizer pressure was 35 psi. […] Metabolite levels are expressed as relative abundances as compared to controls.

[3] = test system: cysteines profiled in 231MFP cells; assay: isoTOP-ABPP proteome-wide selectivity; format: binding; details: 100 μM, out of >1000 cysteines profiled
Protocol: IsoTOP-ABPP studies were performed using the methods described in “Nature 534(7608), 570-574 (2016)” by Backus K. M., et al. and “Nature 468(7325), 790-795 (2010)” by Weerapana E., et al. Proteome samples diluted in PBS were treated with Withaferin A or vehicle for 30 minutes at 37° C. Then, IAyne (iodoacetamide-alkyne) labeling was performed for 1 hour at room temperature. CuAAC was used by sequential addition of tris(2-carboxyethyl)phosphine (1 mM), tris[(1-benzyl-1H-1,2,3-triazol-4-yl)methyl]amine (34 μM), copper (II) sulfate (1 mM), and biotin-linker-azide where the linker was functionalized with a TEV protease recognition sequence along with an isotopically light or heavy valine for treatment of control or treated proteome, respectively. After click reactions, proteomes were precipitated by centrifugation at 6500×g, washed in ice-cold methanol, combined in a 1:1 control/treated ratio, washed again, then denatured and re-solubilized by heating in 1.2% SDS/PBS to 80° C. for 5 minutes. […]
Peptides from all proteomic experiments were pressure-loaded onto an Agilent 600 series RP-HPLC system equipped with a capillary tubing (250 mm) packed with Aqua C18 reverse-phase resin (4 cm). […] Samples were analyzed using an Q Exactive Plus mass spectrometer using a 5-step Multidimensional Protein Identification Technology (MudPIT) program. […]

Compound	serum-free cell survival ([1]; 10 μM)	ATP level ([2]; 10 μM)	LPA (lysophosphatidic acid) level ([2]; 10 μM)	acetyl CoA level ([2]; 10 μM)	lactic acid level ([2]; 10 μM)	phosphoenolpyruvate level ([2]; 10 μM)	phosphoglycerate level ([2]; 10 μM)	serum-free cell survival ([1]; 100 μM)	total sites showing >5 light to heavy ratio [3]	ATP level ([2]; 100 μM)	LPA (lysophosphatidic acid) level ([2]; 100 μM)	acetyl CoA level ([2]; 100 μM)	lactic acid level ([2]; 100 μM)	phosphoenolpyruvate level ([2]; 100 μM)	phosphoglycerate level ([2]; 100 μM)
CC1=C(CO)C(=O)O[C@@H]([C@@H](C)[C@H]2CC[C@H]3[C@@H]4C[C@H]5O[C@]56[C@@H](O)C=CC(=O)[C@]6(C)[C@H]4CC[C@]23C)C1 [withaferin A, reference compound]	impairs	Reductions	reductions	reduced	reduced	reduced	reduced	–	–	–	–	–	–	–	–
O=C(CCl)N(Cc1ccccc1)c1ccc2c(c1)OCCO2 [JNS 1-40, N-benzyl-2-chloro-N-(2,3-dihydrobenzo[b][1,4]dioxin-6-yl)acetamide]	–	–	–	–	–	–	–	impaired	only target	–	–	–	–	–	–
O=C(CCl)Nc1ccc2c(c1)OCCO2 [DKM 2-90, 2-Chloro-N-(2,3-dihydrobenzo[β][1,4]dioxin-6-yl)acetamide]	–	–	–	–	–	–	–	–	5	Reductions	reductions	reduced	reduced	reduced	reduced
